# According to patent US4200635A, “Antibacterially active amides” (Beecham Group Limited, priority 1977, dated 1980):
# Tested on: Haemophilus influenzae Q1
# Experiment: MIC, serial dilution in nutrient agar, human bacteria
# Type: cell-based
# Settings: nutrient agar containing 5% chocolated horse blood
row,SMILES,MIC [µg/mL]
1,"CCOC(=O)CCCCCNC(=O)C=C(C)CC1OCC(CC2OC2C(C)C(C)O)C(O)C1O (centres unmarked) [Example 5, 5-Ethoxycarbonylpentylamide of monic acid A]",0.05

# Tested on: Haemophilus influenzae Wy21
# Experiment: as above
# Type: cell-based
# Settings: Haemophilus influenzae Wy21; nutrient agar containing 5% chocolated horse blood; read-out: M.I.C.
row,SMILES,MIC [µg/mL]
1,"CCOC(=O)CCCCCNC(=O)C=C(C)CC1OCC(CC2OC2C(C)C(C)O)C(O)C1O (centres unmarked) [Example 5, 5-Ethoxycarbonylpentylamide of monic acid A]",0.5

# Tested on: Neisseria catarrhalis 1502
# Experiment: as above
# Type: cell-based
# Settings: Neisseria, 1502
row,SMILES,MIC [µg/mL]
1,"CCOC(=O)CCCCCNC(=O)C=C(C)CC1OCC(CC2OC2C(C)C(C)O)C(O)C1O (centres unmarked) [Example 5, 5-Ethoxycarbonylpentylamide of monic acid A]",0.05

# Tested on: Bacillus subtilis 6633
# Experiment: as above
# Type: cell-based
# Settings: Bacillus subtilis 6633; nutrient agar containing 5% chocolated horse blood; read-out: M.I.C.
row,SMILES,MIC [µg/mL]
1,"CCOC(=O)CCCCCNC(=O)C=C(C)CC1OCC(CC2OC2C(C)C(C)O)C(O)C1O (centres unmarked) [Example 5, 5-Ethoxycarbonylpentylamide of monic acid A]",10

# Tested on: Staph. aureus Oxford
# Experiment: as above
# Type: cell-based
# Settings: Staphylococcus aureus; Staph. aureus Oxford; nutrient agar containing 5% chocolated horse blood; read-out: M.I.C.
row,SMILES,MIC [µg/mL]
1,"CCOC(=O)CCCCCNC(=O)C=C(C)CC1OCC(CC2OC2C(C)C(C)O)C(O)C1O (centres unmarked) [Example 5, 5-Ethoxycarbonylpentylamide of monic acid A]",25

# Tested on: Staph. aureus Russell
# Experiment: as above
# Type: cell-based
# Settings: Staphylococcus aureus; Staph. aureus Russell; nutrient agar containing 5% chocolated horse blood; read-out: M.I.C.
row,SMILES,MIC [µg/mL]
1,"CCOC(=O)CCCCCNC(=O)C=C(C)CC1OCC(CC2OC2C(C)C(C)O)C(O)C1O (centres unmarked) [Example 5, 5-Ethoxycarbonylpentylamide of monic acid A]",50

# Tested on: Strep. pneumoniae CN33
# Experiment: as above
# Type: cell-based
# Settings: Streptococcus pneumoniae; Strep. pneumoniae CN33; nutrient agar containing 5% chocolated horse blood; read-out: M.I.C.
row,SMILES,MIC [µg/mL]
1,"CCOC(=O)CCCCCNC(=O)C=C(C)CC1OCC(CC2OC2C(C)C(C)O)C(O)C1O (centres unmarked) [Example 5, 5-Ethoxycarbonylpentylamide of monic acid A]",1

# Tested on: Bord. bronchiseptica BO9
# Experiment: MIC, veterinary bacteria
# Type: cell-based
# Settings: Bordetella bronchiseptica; Bord. bronchiseptica BO9; read-out: M.I.C.
row,SMILES,MIC [µg/mL]
1,"CCOC(=O)CCCCCNC(=O)C=C(C)CC1OCC(CC2OC2C(C)C(C)O)C(O)C1O (centres unmarked) [Example 5, 5-Ethoxycarbonylpentylamide of monic acid A]",23

# Tested on: Past. multocida PAI
# Experiment: MIC, veterinary bacteria
# Type: cell-based
# Settings: Pasteurella multocida; Past. multocida PAI; read-out: M.I.C.
row,SMILES,MIC [µg/mL]
1,"CCOC(=O)CCCCCNC(=O)C=C(C)CC1OCC(CC2OC2C(C)C(C)O)C(O)C1O (centres unmarked) [Example 5, 5-Ethoxycarbonylpentylamide of monic acid A]",0.35

# Tested on: Past. haemolytica PA5
# Experiment: MIC, veterinary bacteria
# Type: cell-based
# Settings: Mannheimia haemolytica; Past. haemolytica PA5; read-out: M.I.C.
row,SMILES,MIC [µg/mL]
1,"CCOC(=O)CCCCCNC(=O)C=C(C)CC1OCC(CC2OC2C(C)C(C)O)C(O)C1O (centres unmarked) [Example 5, 5-Ethoxycarbonylpentylamide of monic acid A]",11

# Tested on: Staph. aureus B4
# Experiment: MIC, veterinary bacteria
# Type: cell-based
# Settings: Staphylococcus aureus; Staph. aureus B4; read-out: M.I.C.
row,SMILES,MIC [µg/mL]
1,"CCOC(=O)CCCCCNC(=O)C=C(C)CC1OCC(CC2OC2C(C)C(C)O)C(O)C1O (centres unmarked) [Example 5, 5-Ethoxycarbonylpentylamide of monic acid A]",11

# Tested on: Staph. aureus 152
# Experiment: MIC, veterinary bacteria
# Type: cell-based
# Settings: Staphylococcus aureus
row,SMILES,MIC [µg/mL]
1,"CCOC(=O)CCCCCNC(=O)C=C(C)CC1OCC(CC2OC2C(C)C(C)O)C(O)C1O (centres unmarked) [Example 5, 5-Ethoxycarbonylpentylamide of monic acid A]",45

# Tested on: Strep. uberis SPU 1
# Experiment: MIC, veterinary bacteria
# Type: cell-based
# Settings: Streptococcus uberis, SPU1; Strep. uberis SPU 1; read-out: M.I.C.
row,SMILES,MIC [µg/mL]
1,"CCOC(=O)CCCCCNC(=O)C=C(C)CC1OCC(CC2OC2C(C)C(C)O)C(O)C1O (centres unmarked) [Example 5, 5-Ethoxycarbonylpentylamide of monic acid A]",0.35

# Tested on: Strep. dysgalactiae SPD 1
# Experiment: MIC, veterinary bacteria
# Type: cell-based
# Settings: Streptococcus dysgalactiae, SPD1; Strep. dysgalactiae SPD 1; read-out: M.I.C.
row,SMILES,MIC [µg/mL]
1,"CCOC(=O)CCCCCNC(=O)C=C(C)CC1OCC(CC2OC2C(C)C(C)O)C(O)C1O (centres unmarked) [Example 5, 5-Ethoxycarbonylpentylamide of monic acid A]",0.7

# Tested on: M. suipneumoniae Str. 11
# Experiment: in vitro MIC, anti-mycoplasmal activity
# Type: cell-based
# Settings: Mesomycoplasma hyopneumoniae, Friis' broth, microtiter method
row,SMILES,MIC [µg/mL]
1,"CCOC(=O)CCCCCNC(=O)C=C(C)CC1OCC(CC2OC2C(C)C(C)O)C(O)C1O (centres unmarked) [Example 5, 5-Ethoxycarbonylpentylamide of monic acid A]",1.25

# Tested on: M. dispar H225
# Experiment: in vitro MIC, anti-mycoplasmal activity
# Type: cell-based
# Settings: M. dispar H225; Friis' broth, microtiter method; read-out: M.I.C.
# Source text: (§1) Tables 3 and 4 show the in vitro MIC values (μg/ml) of the compounds of Examples 1 to 9 against a number of mycoplasma organisms, determined in Friis' broth using the microtiter method.
row,SMILES,MIC [µg/mL]
1,"CCOC(=O)CCCCCNC(=O)C=C(C)CC1OCC(CC2OC2C(C)C(C)O)C(O)C1O (centres unmarked) [Example 5, 5-Ethoxycarbonylpentylamide of monic acid A]",0.312

# Tested on: M. dispar NCTC 10125
# Experiment: in vitro MIC, anti-mycoplasmal activity
# Type: cell-based
# Settings: Friis' broth, microtiter method
# Source text: as §1
row,SMILES,MIC [µg/mL]
1,"CCOC(=O)CCCCCNC(=O)C=C(C)CC1OCC(CC2OC2C(C)C(C)O)C(O)C1O (centres unmarked) [Example 5, 5-Ethoxycarbonylpentylamide of monic acid A]",0.156

# Tested on: M. fermentans MWKL4
# Experiment: in vitro MIC, anti-mycoplasmal activity
# Type: cell-based
# Settings: Mycoplasmopsis fermentans, Friis' broth, microtiter method
# Source text: as §1
row,SMILES,MIC [µg/mL]
1,"CCOC(=O)CCCCCNC(=O)C=C(C)CC1OCC(CC2OC2C(C)C(C)O)C(O)C1O (centres unmarked) [Example 5, 5-Ethoxycarbonylpentylamide of monic acid A]",0.039

# Tested on: M. pneumoniae ATCC 15492
# Experiment: in vitro MIC, anti-mycoplasmal activity
# Type: cell-based
# Settings: Mycoplasmoides pneumoniae, ATCC15492, Friis' broth, microtiter method
# Source text: as §1
row,SMILES,MIC [µg/mL]
1,"CCOC(=O)CCCCCNC(=O)C=C(C)CC1OCC(CC2OC2C(C)C(C)O)C(O)C1O (centres unmarked) [Example 5, 5-Ethoxycarbonylpentylamide of monic acid A]",10

# Tested on: M. pulmonis JB
# Experiment: in vitro MIC, anti-mycoplasmal activity
# Type: cell-based
# Settings: Mycoplasmopsis pulmonis, Friis' broth, microtiter method
# Source text: as §1
row,SMILES,MIC [µg/mL]
1,"CCOC(=O)CCCCCNC(=O)C=C(C)CC1OCC(CC2OC2C(C)C(C)O)C(O)C1O (centres unmarked) [Example 5, 5-Ethoxycarbonylpentylamide of monic acid A]",< 0.02

# Tested on: M. suipneumoniae J2206/183b
# Experiment: in vitro MIC, anti-mycoplasmal activity
# Type: cell-based
# Settings: Mesomycoplasma hyopneumoniae, Friis' broth, microtiter method
# Source text: as §1
row,SMILES,MIC [µg/mL]
1,"CCOC(=O)CCCCCNC(=O)C=C(C)CC1OCC(CC2OC2C(C)C(C)O)C(O)C1O (centres unmarked) [Example 5, 5-Ethoxycarbonylpentylamide of monic acid A]",2.5

# Tested on: M. pneumoniae 427a
# Experiment: in vitro MIC, anti-mycoplasmal activity
# Type: cell-based
# Settings: Mycoplasmoides pneumoniae, Friis' broth, microtiter method
row,SMILES,MIC [µg/mL]
1,"CCOC(=O)CCCCCNC(=O)C=C(C)CC1OCC(CC2OC2C(C)C(C)O)C(O)C1O (centres unmarked) [Example 5, 5-Ethoxycarbonylpentylamide of monic acid A]",> 10

# Tested on: not listed separately
# Experiment: Mouse blood levels
# Type: in vivo, male albino mice, CS1 strain
# Settings: blood, sc, 5 minutes after dosing, 50 mg/kg subcutaneous, mean of 5 experiments, assay Neisseria catarrhalis, read-out: Concentration (blood level)
# Description: The blood levels of the 5-ethoxycarbonylpentyl amide of monic acid A were measured after subcutaneous dosing to male albino mice.
# Species: Albino male mice 18-22 g CS1 strain.
# Routes: Subcutaneous and oral.
# Dose: 50 mg/kg. This compound was supplied as an oil. It was administered as a solution in 10% DMF v/v in PBS or water.
# Assay: Neisseria catarrhalis, immediate assay of samples.
row,SMILES,concentration at 5 min [ng/mL]
1,"CCOC(=O)CCCCCNC(=O)C=C(C)CC1OCC(CC2OC2C(C)C(C)O)C(O)C1O (centres unmarked) [Example 5, 5-Ethoxycarbonylpentylamide of monic acid A]",22100

# Same assay, conditions: blood, sc, 10 minutes after dosing, 50 mg/kg subcutaneous, mean of 5 experiments, assay Neisseria catarrhalis, read-out: Concentration (blood level)
row,SMILES,concentration at 10 min [ng/mL]
1,"CCOC(=O)CCCCCNC(=O)C=C(C)CC1OCC(CC2OC2C(C)C(C)O)C(O)C1O (centres unmarked) [Example 5, 5-Ethoxycarbonylpentylamide of monic acid A]",22600

# Same assay, conditions: blood, sc, 20 minutes after dosing, 50 mg/kg subcutaneous, mean of 5 experiments, assay Neisseria catarrhalis, read-out: Concentration (blood level)
row,SMILES,concentration at 20 min [ng/mL]
1,"CCOC(=O)CCCCCNC(=O)C=C(C)CC1OCC(CC2OC2C(C)C(C)O)C(O)C1O (centres unmarked) [Example 5, 5-Ethoxycarbonylpentylamide of monic acid A]",16100

# Same assay, conditions: blood, sc, 30 minutes after dosing, 50 mg/kg subcutaneous, mean of 5 experiments, assay Neisseria catarrhalis, read-out: Concentration (blood level)
row,SMILES,concentration at 0.5 h [ng/mL]
1,"CCOC(=O)CCCCCNC(=O)C=C(C)CC1OCC(CC2OC2C(C)C(C)O)C(O)C1O (centres unmarked) [Example 5, 5-Ethoxycarbonylpentylamide of monic acid A]",9100

# Same assay, conditions: blood, sc, 60 minutes after dosing, 50 mg/kg subcutaneous, mean of 5 experiments, assay Neisseria catarrhalis, read-out: Concentration (blood level)
row,SMILES,concentration at 1 h [ng/mL]
1,"CCOC(=O)CCCCCNC(=O)C=C(C)CC1OCC(CC2OC2C(C)C(C)O)C(O)C1O (centres unmarked) [Example 5, 5-Ethoxycarbonylpentylamide of monic acid A]",< 4000

# Same assay, conditions: sc, 50 mg/kg subcutaneous, blood
row,SMILES,half-life [min]
1,"CCOC(=O)CCCCCNC(=O)C=C(C)CC1OCC(CC2OC2C(C)C(C)O)C(O)C1O (centres unmarked) [Example 5, 5-Ethoxycarbonylpentylamide of monic acid A]",15

# Same assay, conditions: subcutaneous dosing
row,SMILES,blood levels compared with pseudomonic acid
1,"CCOC(=O)CCCCCNC(=O)C=C(C)CC1OCC(CC2OC2C(C)C(C)O)C(O)C1O (centres unmarked) [Example 5, 5-Ethoxycarbonylpentylamide of monic acid A]",higher and more prolongued than those obtained after subcutaneous dosing of pseudomonic acid
